pIC50: −log10 of the molar value.

Assay type in all cases: cell-based, C57bl/6j mice
Data set [1] relates to NO synthesis in LPS-stimulated primary murine peritoneal macrophages. The experiment in a line: Inhibition of NO synthesis in LPS-stimulated macrophages (Griess). The conditions noted are these: Mus musculus, Peritoneal macrophage; LPS-stimulated (100 ng/mL E. coli LPS) peritoneal macrophages, supernatants after 22 h; n.a. = not active. As to the method:
(§1) Peritoneal macrophages (PM) were isolated from the peritoneal exudate of 30 male C57bl/6j mice. To accumulate PM, 1 mL of 3% peptone solution was injected intraperitoneally. After 3 days, the mice were euthanized by cervical dislocation. Cells of peritoneal exudate were obtained by aseptic washing of the abdominal cavity with 5 mL of sterile Hanks’s solution (+4–6 °C) without calcium and magnesium ions. The total number and viability of cells were assessed in a Goryaev counting chamber (Russia) with a 0.4% trypan blue staining (Sigma-Aldrich, St. Louis, MO, USA). The cell concentration was adjusted to 1.0 × 10^6 cells/mL in DMEM (Gibco, Waltham, MA, USA) supplemented with 2 mM L-glutamine (Gibco), 10% heat-inactivated fetal bovine serum (BioClot, Bavaria, Germany), 100 U/mL penicillin, and […] streptomycin (Gibco) and plated 200 µL/well in 96-well transparent plates (SPL Life Sciences Co., Ltd., Pocheon-si, Republic of Korea). After 2 h at 37 °C in a humidified atmosphere with 5% CO2, the wells were washed to remove non-adherent cells. After 24 h of incubation, 20 µL of the supernatants were substituted with 20 µL of solutions of test compounds, followed by E. coli O127:B8 LPS (100 ng/mL final concentration) after 30 min. The experiments were run in 3 independent replicates.
The accumulation of the nitrite anion (a stable end product of NO decomposition) in supernatants was determined using a standard Griess reagent. Briefly, 50 µL of supernatants were collected 22 h after incubation of PM, and the test and control compounds were mixed with 50 µL of 1% sulfonamide in 2.5% H3PO4 and 50 µL of 0.1% N-(1-naphthyl) ethylenediamine in 2.5% H3PO4. After incubation at 23 °C for 10 min in an orbital shaker, the optical density was determined at a wavelength of 550 nm with a microplate reader Infinite M200 PRO (Tecan, Grödig, Austria).

Another data set can be described thus: MTT cytotoxicity study. To be noted: male, C57bl/6j, mouse; peritoneal macrophages, 24 h incubation. On the procedure:
as §1
The activity of lactate dehydrogenase (LDH) in a cell culture medium served as a marker of membrane permeability and cell death. Aliquots of supernatants were taken after 24 h of inoculation with test compounds, mixed with 250 µL of […] NADH solution in 54 mM phosphate-buffered saline (pH 7.5). Then, 25 µL of a 6.48 mM pyruvate solution was added to the mixture. The optical density was followed at a wavelength of 340 nm for 20 min. The MTT test was performed 24 h after incubations of cells with tested compounds. Briefly, 20 µL of MTT solution was added to each well and incubated at 37 °C in a humidified atmosphere containing 5% CO2 for 4 h. The culture medium was removed, the cells were lysed, and formazan crystals were dissolved in 150 µL DMSO. The plates were shaken at room temperature for 10 min, and the optical density was measured in a microplate reader Infinite M200 PRO (Tecan, Grödig, Austria) at a wavelength of 565 nm.

The test system of data set [2] is IL-6 release in LPS-stimulated primary murine peritoneal macrophages. Briefly: Inhibition of IL-6 release in LPS-stimulated macrophages (ELISA). To be noted: Mus musculus, Peritoneal macrophage; LPS-stimulated (100 ng/mL E. coli LPS) peritoneal macrophages; n.a. = not active. As to the method: as §1
The cell supernatant was collected and centrifuged at 1000× g for 20 min in a 2–16 PK centrifuge (Sigma, Osterode am Harz, Germany). The concentrations of IL-6 and TNF-alpha were determined by ELISA using commercial kits (Cloud-clone, Houston, TX, USA) with a microplate reader Infinite M200 PRO (Tecan, Grödig, Austria).

With `Cc1nc(-c2ccccc2)cc(-c2ccc(N)cc2)n1` [Compound 6b], the pIC50 (commonly the negative decadic logarithm of the IC50, by convention in mol/L) in data set [1] is 4.68; in data set [2] it was 5.66. In addition, the CC50 – broadly, the concentration at which the toxic effect on the cells reaches its halfway point – at 24 h in the data set “MTT cytotoxicity study” worked out at 65.6 µM.
Take `Cc1nc(-c2ccc(N)cc2)cc(-c2ccc(F)cc2)n1` [Compound 6c]: the pIC50 in data set [1] is 6.43; in data set [2], 4.46. Moreover, the CC50 at 24 h in the data set “MTT cytotoxicity study” was > 100 µM.
Turning to `Cc1nc(-c2ccc(N)cc2)cc(-c2cccc(N)c2)n1` [Compound 6d], the CC50 at 24 h in the data set “MTT cytotoxicity study” was > 100 µM.
As to `Nc1ccc(-c2cc(-c3ccc(N)cc3)nc(N)n2)cc1` [Compound 6f], in data set [1], the pIC50 was 4.37. It took 96.1 µM to reach half-maximal cytotoxicity in the data set “MTT cytotoxicity study” (CC50 at 24 h).
Take `CSc1nc(-c2ccc(N)cc2)cc(-c2ccc(N)cc2)n1` [Compound 6g]: the pIC50 in data set [1] was 6.92; in data set [2] it was < 4.00. Also, in “MTT cytotoxicity study”, the CC50 at 24 h was > 100 µM.
Taken in the same sequence, the figures for `Nc1ccc(-c2cc(-c3ccc(F)cc3)n3ncnc3n2)cc1` [Compound 7a] were 6.43, 4.83 and > 100 µM.
In the case of `Nc1ccc(-c2cc(-c3cccc(N)c3)n3ncnc3n2)cc1` [Compound 7b], the pIC50 was 4.34 in data set [1] and 4.50 in data set [2]. Besides, the CC50 at 24 h in “MTT cytotoxicity study” is > 100 µM.
As to `CCOC(=O)C1=C(C)NC(C)=NC1c1cccc(N)c1` (stereo not drawn) [Compound 10a], the negative logarithm of the IC50 (pIC50) in data set [1] was 3.49. Also, the CC50 at 24 h in the data set “MTT cytotoxicity study” is > 100 µM.
Taken in the same sequence, the figures for `CCOC(=O)C1=C(C)NC(C)=NC1c1ccc(N)cc1` (stereo not drawn) [Compound 10b] were 4.14 and 178 µM.
Take `CCOC(=O)C1=C(C)Nc2ncnn2C1c1cccc(N)c1` (stereo not drawn) [Compound 11a]: in the data set “MTT cytotoxicity study”, the CC50 at 24 h was > 100 µM.
Same read-out and setting: the result for `CCOC(=O)C1=C(C)Nc2ncnn2C1c1ccc(N)cc1` (stereo not drawn) [Compound 11b] reads > 100 µM.

The values above are taken from paper PMC9863002, “Amino Derivatives of Diaryl Pyrimidines and Azolopyrimidines as Protective Agents against LPS-Induced Acute Lung Injury” (Molecules, 2023).
